Test results as given in BindingDB's records for doi:10.1021/acs.jmedchem.1c00742 (H. Lee Moffitt Cancer Center and Research Institute, 2021).

Molecular target: T1, B-cell CLL/lymphoma 9 protein (Homo sapiens, UniProt O00512)
T1 sequence (O00512 whole entry): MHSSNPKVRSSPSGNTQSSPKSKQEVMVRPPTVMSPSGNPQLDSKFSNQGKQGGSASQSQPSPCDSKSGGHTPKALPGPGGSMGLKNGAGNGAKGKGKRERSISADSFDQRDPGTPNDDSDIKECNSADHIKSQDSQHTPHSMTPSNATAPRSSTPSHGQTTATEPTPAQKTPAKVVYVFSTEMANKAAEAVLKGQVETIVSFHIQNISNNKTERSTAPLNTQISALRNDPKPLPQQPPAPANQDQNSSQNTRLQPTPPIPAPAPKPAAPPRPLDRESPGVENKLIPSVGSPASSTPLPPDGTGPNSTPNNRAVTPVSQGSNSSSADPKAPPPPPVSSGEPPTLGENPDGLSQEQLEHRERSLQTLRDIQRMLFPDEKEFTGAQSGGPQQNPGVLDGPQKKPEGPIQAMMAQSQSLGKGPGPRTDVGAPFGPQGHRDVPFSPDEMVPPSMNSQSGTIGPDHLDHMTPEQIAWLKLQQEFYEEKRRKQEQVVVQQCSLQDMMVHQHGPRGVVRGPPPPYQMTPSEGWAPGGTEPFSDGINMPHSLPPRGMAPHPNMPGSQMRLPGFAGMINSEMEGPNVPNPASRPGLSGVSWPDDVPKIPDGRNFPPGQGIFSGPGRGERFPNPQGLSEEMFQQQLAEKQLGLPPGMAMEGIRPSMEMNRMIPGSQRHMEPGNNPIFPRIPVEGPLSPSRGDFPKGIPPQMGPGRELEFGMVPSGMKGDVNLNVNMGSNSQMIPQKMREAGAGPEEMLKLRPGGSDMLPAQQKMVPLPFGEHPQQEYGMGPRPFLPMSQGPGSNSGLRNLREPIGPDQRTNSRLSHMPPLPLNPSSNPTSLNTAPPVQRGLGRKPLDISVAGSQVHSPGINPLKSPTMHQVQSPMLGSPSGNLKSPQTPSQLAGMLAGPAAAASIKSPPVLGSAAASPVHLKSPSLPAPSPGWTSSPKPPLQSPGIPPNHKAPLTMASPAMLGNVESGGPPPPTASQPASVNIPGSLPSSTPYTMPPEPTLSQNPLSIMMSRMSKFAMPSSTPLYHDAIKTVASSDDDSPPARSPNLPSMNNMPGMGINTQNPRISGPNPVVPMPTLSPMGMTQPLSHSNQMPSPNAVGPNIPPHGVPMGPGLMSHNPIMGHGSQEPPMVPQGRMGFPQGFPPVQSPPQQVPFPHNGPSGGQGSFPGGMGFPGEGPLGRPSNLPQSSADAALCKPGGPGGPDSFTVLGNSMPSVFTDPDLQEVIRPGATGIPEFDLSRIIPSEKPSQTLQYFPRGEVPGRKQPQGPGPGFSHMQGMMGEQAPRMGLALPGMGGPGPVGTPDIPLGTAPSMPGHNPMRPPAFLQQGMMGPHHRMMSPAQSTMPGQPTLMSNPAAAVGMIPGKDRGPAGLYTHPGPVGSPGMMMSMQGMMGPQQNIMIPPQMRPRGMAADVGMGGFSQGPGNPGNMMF
Experiment: Competitive binding affinity to C-terminal 6-His-tagged beta-catenin (1 to 781 residues) (unknown origin) expressed in Escherichia coli BL21 (DE3)- N-terminal biotinylated human BCL9 (350 to 375 residues) assessed as apparent dissociation constant incubated for 2 hrs by AlphaScreen assay

CC(C)(Oc1cccc(N2CCC[C@@H](C(=O)N(CCOCCOCCNC(=O)CCCC[C@@H]3SC[C@@H]4NC(=O)N[C@@H]43)Cc3ccc(-c4cn[nH]c4)cc3)C2)c1)C(=O)N1CCNCC1
Kd: 0.77 µM
